In PubChem BioAssay AID1259407 (Chemical Carcinogenesis Research Information System (CCRIS), 2018):
The source made the active and inactive calls. No rule for the calls is given here.

Test system: CCRIS mutagenicity, Ames/micronucleus/aberration tests
Assay: CCRIS mutagenicity studies
[1] = Test System: AMES SALMONELLA TYPHIMURIUM, Strain/Indicator: TA100, Metabolic Activation: NONE, Method: STANDARD PLATE

CC(Br)(CCl)CBr (stereo not drawn)
mutagenic call (Test System: AMES SALMONELLA TYPHIMURIUM, Strain/Indicator: TA98, Metabolic Activation: NONE, Method: FLASK ASSAY): inactive; negative
mutagenic call (Test System: AMES SALMONELLA TYPHIMURIUM, Strain/Indicator: TA98, Metabolic Activation: RAT, LIVER, S-9, AROCLOR 1254, Method: FLASK ASSAY): inactive; negative
mutagenic call (Test System: AMES SALMONELLA TYPHIMURIUM, Strain/Indicator: TA100, Metabolic Activation: NONE, Method: FLASK ASSAY): inactive; negative
mutagenic call (Test System: AMES SALMONELLA TYPHIMURIUM, Strain/Indicator: TA100, Metabolic Activation: RAT, LIVER, MICROSOMES, PHENOBARBITAL, Method: PREINCUBATION): inactive; negative
mutagenic call (Test System: AMES SALMONELLA TYPHIMURIUM, Strain/Indicator: TA100, Metabolic Activation: RAT, LIVER, MICROSOMES, Method: PREINCUBATION): inactive; negative
mutagenic call (Test System: AMES SALMONELLA TYPHIMURIUM, Strain/Indicator: TA100, Metabolic Activation: RAT, LIVER, S-9, AROCLOR 1254, Method: FLASK ASSAY): inactive; negative
mutagenic call (Test System: AMES SALMONELLA TYPHIMURIUM, Strain/Indicator: TA1535, Metabolic Activation: NONE, Method: FLASK ASSAY): inactive; negative
mutagenic call (Test System: AMES SALMONELLA TYPHIMURIUM, Strain/Indicator: TA1535, Metabolic Activation: RAT, LIVER, S-9, AROCLOR 1254, Method: FLASK ASSAY): inactive; negative
mutagenic call (Test System: AMES SALMONELLA TYPHIMURIUM, Strain/Indicator: TA1537, Metabolic Activation: NONE, Method: FLASK ASSAY): inactive; negative
mutagenic call (Test System: AMES SALMONELLA TYPHIMURIUM, Strain/Indicator: TA1537, Metabolic Activation: RAT, LIVER, S-9, AROCLOR 1254, Method: FLASK ASSAY): inactive; negative
mutagenic call (Test System: AMES SALMONELLA TYPHIMURIUM, Strain/Indicator: TA1538, Metabolic Activation: NONE, Method: FLASK ASSAY): inactive; negative
mutagenic call (Test System: AMES SALMONELLA TYPHIMURIUM, Strain/Indicator: TA1538, Metabolic Activation: RAT, LIVER, S-9, AROCLOR 1254, Method: FLASK ASSAY): inactive; negative
mutagenic call (Test System: MOUSE LYMPHOMA, Strain/Indicator: L5178Y (TK+/TK-), Metabolic Activation: NONE, Method: SUSPENSION/PLATE): active; positive
mutagenic call (Test System: MOUSE LYMPHOMA, Strain/Indicator: L5178Y (TK+/TK-), Metabolic Activation: RAT, LIVER, S-9, AROCLOR 1254, Method: SUSPENSION/PLATE): inactive; negative

COC(=O)C1CSC2C(Cl)=C(Cl)C(=O)N12 (stereo not drawn)
mutagenic call [1]: active; positive

O=[N+]([O-])O.O=[N+]([O-])O.[Cd+2]
mutagenic call (Test System: E. COLI, Strain/Indicator: DG1153, Metabolic Activation: NONE, Method: FLUCTUATION TEST): active; positive

CN(N=O)C(=O)c1c(N(C)N=O)ncn1C
mutagenic call (Test System: AMES SALMONELLA TYPHIMURIUM, Strain/Indicator: TA98, Metabolic Activation: NONE, Method: STANDARD PLATE): inactive; negative
mutagenic call (Test System: AMES SALMONELLA TYPHIMURIUM, Strain/Indicator: TA98, Metabolic Activation: S-9, Method: STANDARD PLATE): inactive; negative
mutagenic call [1]: active; positive
mutagenic call (Test System: AMES SALMONELLA TYPHIMURIUM, Strain/Indicator: TA100, Metabolic Activation: S-9, Method: STANDARD PLATE): active; positive
mutagenic call (Test System: AMES SALMONELLA TYPHIMURIUM, Strain/Indicator: TA102, Metabolic Activation: NONE, Method: STANDARD PLATE): active; positive
mutagenic call (Test System: AMES SALMONELLA TYPHIMURIUM, Strain/Indicator: TA102, Metabolic Activation: S-9, Method: STANDARD PLATE): active; positive
mutagenic call (Test System: AMES SALMONELLA TYPHIMURIUM, Strain/Indicator: TA1535, Metabolic Activation: NONE, Method: STANDARD PLATE): active; positive
mutagenic call (Test System: AMES SALMONELLA TYPHIMURIUM, Strain/Indicator: TA1535, Metabolic Activation: S-9, Method: STANDARD PLATE): active; positive
mutagenic call (Test System: AMES SALMONELLA TYPHIMURIUM, Strain/Indicator: TA1537, Metabolic Activation: NONE, Method: STANDARD PLATE): inactive; negative
mutagenic call (Test System: AMES SALMONELLA TYPHIMURIUM, Strain/Indicator: TA1537, Metabolic Activation: S-9, Method: STANDARD PLATE): inactive; negative

N[C@@H](CCC(=O)NC(CSC(Cl)=C(Cl)Cl)C(=O)NCC(=O)O)C(=O)O (stereo partly drawn)
mutagenic call (Test System: AMES SALMONELLA TYPHIMURIUM, Strain/Indicator: TA100, Metabolic Activation: NONE, Method: PREINCUBATION): inactive; negative
mutagenic call (Test System: AMES SALMONELLA TYPHIMURIUM, Strain/Indicator: TA100, Metabolic Activation: RAT, KIDNEY, MICROSOMES, Method: PREINCUBATION): active; positive
